Data reported in patent publication US20230172971A1, “ANTIBIOTIC AND ANTI-INFLAMMATORY COMPOSITIONS AND METHODS OF USE” (priority 2020, published 2023).
≈ marks a conversion by molar mass, not a printed value. Like-named read-outs stand apart in the source and are kept apart here.

How the values were obtained:
[1] = tested on: Pseudomonas aeruginosa strain BAA-47; assay: Checkerboard assay azithromycin + 600-Da BPEI, P. aeruginosa BAA-47; format: cell-based
Protocol: (§1) Checkerboard assays were conducted to identify synergy between BPEI and antibiotics against bacteria. Serial dilutions of antimicrobial agents (BPEI and antibiotic solutions) were added to a 96-well microtiter plate with 100 μL CAMHB per well. Untreated control and positive control (5% bleach) were also conducted. Bacterial inoculation (5×10^5 CFU/mL) from an overnight culture was added to the plate (1 μL/well) and incubated at 37° C. for 20 hr. The change in optical density at 600 nm (ΔOD600) was measured using a Tecan Infinite M20 plate reader immediately after inoculation Minimum inhibitory concentration (MIC) of each drug is determined as the lowest concentration that inhibited cell growth (ΔOD600<0.05). Fractional inhibitory concentration index (FICI) and synergistic effects are determined using EUCAST guidelines: synergy (FICI≤0.5), additivity (0.5<FICI<1), and indifference (FICI>1). Each assay was done in triplicate.

PA OU19 [2] = assay: MicroScan Walkaway MIC panel, PA OU19; format: cell-based, P. aeruginosa
MRSA OU11 [3] = assay: MicroScan Walkaway MIC panel, MRSA OU11; format: cell-based, Staphylococcus aureus; conditions: for MIC: Staphylococcus aureus
Source text: (§2) The multi-drug resistance characteristics of the clinical isolates was confirmed using the Beckman Coulter MicroScan Walkaway™ 96plus with the PC33 gram positive panel. The MIC values are listed below.

MRSA OU6 [4] = assay: MicroScan Walkaway MIC panel, MRSA OU6; format: cell-based, Staphylococcus aureus; conditions: for MIC: Staphylococcus aureus
Source text: as §2

PA OU19 [5] = assay: Checkerboard assay erythromycin + 600-Da BPEI, PA OU19; format: cell-based, P. aeruginosa
Protocol: as §1

MRSA OU6 [6] = assay: Checkerboard assay erythromycin + 600-Da BPEI, MRSA OU6; format: cell-based, Staphylococcus aureus; conditions: for MIC Antibiotic: MRSA OU6, antibiotic alone
Protocol: as §1

MRSA OU11 [7] = assay: Checkerboard assay erythromycin + 600-Da BPEI, MRSA OU11; format: cell-based, Staphylococcus aureus; conditions: for MIC Antibiotic: MRSA OU11, antibiotic alone
Protocol: as §1

K. pneumoniae BAA-2146 = assay: Checkerboard assay, CRE K. pneumoniae BAA-2146 (NDM-1); format: cell-based, Klebsiella pneumoniae; conditions: NDM-1 strain; over the susceptibility breakpoint
Protocol: (§3) Checkerboard assays were used to determine the synergistic effect between PEG350-BPEI or 600 Da BPEI and antibiotics against drug resistant strains growing in cation-adjusted Mueller-Hinton broth (CAMHB). […] Cells were grown at 37° C. The change in OD600 (optical density at 600 nm) was measured and recorded after 24 hr of treatment. Each checkerboard trial was done in triplicate using sterile Greiner CellStar™ flat bottom polystyrene plates, catalog #655180.

E. coli BAA-2452 = assay: Checkerboard assay, CRE E. coli BAA-2452 (NDM-1); format: cell-based, Escherichia coli; conditions: NDM-1 strain; over the susceptibility breakpoint
Protocol: as §3

[8] = tested on: K. pneumoniae BAA-1705(blaKPC+/blaNDM−); assay: Checkerboard assay, CRE K. pneumoniae BAA-1705 (blaKPC+/blaNDM-); format: cell-based, Klebsiella pneumoniae; conditions: FIGS. 11A and 11C
Protocol: as §3

[9] = tested on: HEKa cells (primary human epithelial keratinocytes); assay: Cytokine release (IL-8, IL-6, TNF-alpha) by HEKa cells, Quantikine ELISA; format: cell-based; conditions: PG or LPS 5 μg/mL, 24 hr; for TNF-α concentration released by HEKa cells: untreated control <10; for IL-6 concentration released by HEKa cells: untreated control <50
Protocol: (§4) Materials included HEKa cells (primary human epithelial keratinocytes; Invitrogen), Epilife Medium and growth supplement (Invitrogen), lipopolysaccharides from Escherichia coli O111:B4 (Sigma), peptidoglycan from Staphylococcus aureus (Sigma), and Human (IL-8/CXCL8, IL-6, TNF-alpha) Quantikine ELISA Kits (R&D). HEKa cells were seeded in T-75 tissue culture flasks with Epilife media supplemented with human keratinocyte growth supplement 100 ug/mL and 100 U/mL of pen/strep and incubated at 37° C. in a CO2 incubator. Fresh media was replaced every 2 days. Until the cell confluence reach 80-90%, they were split into a new passage. To avoid cell senescence, all experiments were performed with cells at passage 3-7. HEKa cells were cultured in a new 24-well plate until 80-90% confluence (total V=1 mL/well). […] The cell media was collected in 1.5 mL Eppendorf microtubes and stored at −20° C. until ELISA assays were performed. Concentrations of IL-8, IL-6, TNF-α cytokines released into the media were quantified followed the instructions of Quantikine Colorimetric ELISA assay kits (R&D Systems). Absorbance was measured at 450 nm and 570 nm. Final corrected absorbance was the subtraction […].
as §4, with “HEKa” for “Materials included HEKa cells (primary human epithelial keratinocytes; Invitrogen), Epilife Medium and growth supplement (Invitrogen), lipopolysaccharides from Escherichia coli O111:B4 (Sigma), peptidoglycan from Staphylococcus aureus (Sigma), and Human (IL-8/CXCL8, IL-6, TNF-alpha) Quantikine ELISA Kits (R&D). HEKa”, “senescent,” for “senescence,”, “volume=1” for “V=1”, “IL-8 cytokine” for “IL-8, IL-6, TNF-α cytokines”

[10] = Pseudomonas aeruginosa, read-out: MIC
[11] = MRSA OU11, MicroScan, read-out: MIC
[12] = MRSA OU6, MicroScan, read-out: MIC
[13] = PA OU19, erythromycin + 600-Da BPEI
[14] = MRSA OU6, erythromycin + 600-Da BPEI
[15] = MRSA OU11, erythromycin + 600-Da BPEI

| Compound | susceptibility interpretation (PA OU19 [2]) | MIC (MRSA OU11 [3]; [11]) | MIC (MRSA OU6 [4]; [12]) | susceptibility interpretation (MRSA OU11 [3]; MRSA OU11, MicroScan) | susceptibility interpretation (MRSA OU6 [4]; MRSA OU6, MicroScan) | other results |
| --- | --- | --- | --- | --- | --- | --- |
| CC[C@H]1OC(=O)[C@H](C)[C@@H](O[C@H]2C[C@@](C)(OC)[C@@H](O)[C@H](C)O2)[C@H](C)[C@@H](O[C@@H]2O[C@H](C)C[C@H](N(C)C)[C@H]2O)[C@](C)(O)C[C@@H](C)CN(C)[C@H](C)[C@@H](O)[C@]1(C)O [azithromycin] |  |  |  |  |  | growth inhibition by the combination with 600-Da BPEI [1]: inhibits growth |
| C[C@H]1[C@H](NC(=O)/C(=N\OC(C)(C)C(=O)O)c2csc(N)n2)C(=O)N1S(=O)(=O)O [aztreonam] | resistant |  |  |  |  | MIC (PA OU19 [2]; [10]): 16 µg/mL (≈ 36.7 µM) |
| CO/N=C(\C(=O)N[C@@H]1C(=O)N2C(C(=O)[O-])=C(C[N+]3(C)CCCC3)CS[C@H]12)c1csc(N)n1 [cefepime] | resistant |  |  |  |  | MIC (PA OU19 [2]; [10]): 16 µg/mL (≈ 33.3 µM) |
| CC(C)(O/N=C(\C(=O)N[C@@H]1C(=O)N2C(C(=O)[O-])=C(C[n+]3ccccc3)CS[C@H]12)c1csc(N)n1)C(=O)O [ceftazidime] | resistant |  |  |  |  | MIC (PA OU19 [2]; [10]): 16 µg/mL (≈ 29.3 µM) |
| CCC[C@@H]1C[C@@H](C(=O)N[C@@H]([C@H]2O[C@H](SC)[C@H](O)[C@@H](O)[C@H]2O)[C@H](C)Cl)N(C)C1 [clindamycin] |  | > 4 µg/mL | > 4 µg/mL |  |  |  |
| CCCCCCCCCC(=O)N[C@@H](Cc1c[nH]c2ccccc12)C(=O)N[C@H](CC(N)=O)C(=O)N[C@@H](CC(=O)O)C(=O)N[C@@H]1C(=O)NCC(=O)N[C@@H](CCCN)C(=O)N[C@@H](CC(=O)O)C(=O)N[C@H](C)C(=O)N[C@@H](CC(=O)O)C(=O)NCC(=O)N[C@H](CO)C(=O)N[C@@H]([C@H](C)CC(=O)O)C(=O)N[C@@H](CC(=O)c2ccccc2N)C(=O)O[C@@H]1C [daptomycin] |  | ≤ 0.5 µg/mL | ≤ 0.5 µg/mL | susceptible | susceptible |  |
| CC[C@H]1OC(=O)[C@H](C)[C@@H](O[C@H]2C[C@@](C)(OC)[C@@H](O)[C@H](C)O2)[C@H](C)[C@@H](O[C@@H]2O[C@H](C)C[C@H](N(C)C)[C@H]2O)[C@](C)(O)C[C@@H](C)C(=O)[C@H](C)[C@@H](O)[C@]1(C)O [erythromycin] |  | > 4 µg/mL | > 4 µg/mL | resistant | resistant | FICI (PA OU19 [5]; [13]): 0.26; Outcome (PA OU19 [5]; [13]): Synergy; MIC Antibiotic with 16 μg/ml BPEI (PA OU19 [5]; PA OU19, with 16 μg/ml 600-Da BPEI): 2 µg/mL; MIC Antibiotic (MRSA OU6 [6]): over 2000 μg/mL; MIC Antibiotic (MRSA OU6 [6]; listed as Erythromycin): >2000 µg/mL; FICI (MRSA OU6 [6]; [14]): 0.26; Outcome (MRSA OU6 [6]; [14]): Synergy; MIC Antibiotic with 16 μg/ml BPEI (MRSA OU6 [6]; MRSA OU6, with 16 μg/ml 600-Da BPEI): 8 µg/mL; MIC Antibiotic (MRSA OU11 [7]): over 2000 μg/mL; MIC Antibiotic (MRSA OU11 [7]; listed as Erythromycin): >2000 µg/mL; FICI (MRSA OU11 [7]; [15]): 0.31; Outcome (MRSA OU11 [7]; [15]): Synergy |
| C[C@@H](O)[C@H]1C(=O)N2C(C(=O)O)=C(SCCN=CN)C[C@H]12 [imipenem] |  |  |  |  |  | MIC of the carbapenem without potentiator (K. pneumoniae BAA-2146): > 2 µg/mL; MIC of the carbapenem without potentiator (E. coli BAA-2452): > 2 µg/mL |
| CC(=O)NC[C@H]1CN(c2ccc(N3CCOCC3)c(F)c2)C(=O)O1 [linezolid] |  | 2 µg/mL (≈ 5.93 µM) | 2 µg/mL (≈ 5.93 µM) | susceptible | susceptible |  |
| C[C@@H](O)[C@H]1C(=O)N2C(C(=O)O)=C(S[C@@H]3CN[C@H](C(=O)N(C)C)C3)[C@H](C)[C@H]12 [meropenem] | resistant |  |  |  |  | susceptibility of the strain to the carbapenem [8]: resistant; MIC of the carbapenem without potentiator (K. pneumoniae BAA-2146): > 8 µg/mL; MIC of the carbapenem without potentiator (E. coli BAA-2452): > 8 µg/mL; MIC (PA OU19 [2]; [10]): 8 µg/mL (≈ 20.9 µM) |
| Cc1onc(-c2ccccc2)c1C(=O)N[C@@H]1C(=O)N2[C@@H]1SC(C)(C)[C@@H]2C(=O)O [oxacillin] |  | > 2 µg/mL | > 2 µg/mL | resistant | resistant |  |
| CN(C)[C@@H]1C(O)=C(C(N)=O)C(=O)[C@@]2(O)C(O)=C3C(=O)c4c(O)cccc4[C@@](C)(O)[C@H]3C[C@@H]12 [tetracycline] |  | ≤ 4 µg/mL | ≤ 4 µg/mL |  |  |  |
| NC[C@H]1O[C@H](O[C@H]2[C@H](O)[C@@H](O[C@H]3O[C@H](CO)[C@@H](O)[C@H](N)[C@H]3O)[C@H](N)C[C@@H]2N)[C@H](N)C[C@@H]1O [tobramycin] | susceptible |  |  |  |  | MIC (PA OU19 [2]; [10]): 4 µg/mL (≈ 8.56 µM) |
| CN[C@H](CC(C)C)C(=O)N[C@H]1C(=O)N[C@@H](CC(N)=O)C(=O)N[C@H]2C(=O)N[C@H]3C(=O)N[C@H](C(=O)N[C@H](C(=O)O)c4cc(O)cc(O)c4-c4cc3ccc4O)[C@H](O)c3ccc(c(Cl)c3)Oc3cc2cc(c3O[C@@H]2O[C@H](CO)[C@@H](O)[C@H](O)[C@H]2O[C@H]2C[C@](C)(N)[C@H](O)[C@H](C)O2)Oc2ccc(cc2Cl)[C@H]1O [vancomycin] |  |  |  | susceptible | susceptible | MIC (MRSA OU11 [3]; MRSA): 1 µg/mL (≈ 0.69 µM); MIC (MRSA OU6 [4]; MRSA): 2 µg/mL (≈ 1.38 µM) |
| gentamicin | susceptible |  |  | susceptible | susceptible | MIC (PA OU19 [2]): 4 µg/mL |
| lipopolysaccharide [LPS] |  |  |  |  |  | TNF-α concentration released by HEKa cells [9]: ~30 pg/mL; IL-6 concentration released by HEKa cells [9]: ~350 pg/mL |
| peptidoglycan [PG] |  |  |  |  |  | TNF-α concentration released by HEKa cells [9]: ~30 pg/mL; IL-6 concentration released by HEKa cells [9]: ~350 pg/mL |
